This note sets out measurements from patent US10213449B2, “Compositions and methods for treating medulloblastoma” (The Board of Trustees of the Leland Stanford Junior …, priority 2016, dated 2019).

Each structure is given as a SMILES string. Entries after “also recorded” stand apart in the source; their conditions may differ.

Assay [1] deals with Ptch+/−; Trp53−/−; SmoD477G MB intracranial allografts. The experiment in a line: Intracranial allograft survival study. Type of assay: in vivo, mouse. The following applies: CX-4945 75 mg/kg PO BID vs vehicle control. How it is done:
Ptch+/−; Tpr53−/−; SmoD477G were suspended in sterile PBS to an adjusted final volume of at 80,000 cells/2 uL injection. Mice were anesthetized and fixed to a stereotactic frame and the head was sterilized. A small sagittal incision was made in the mouse's scalp to expose the area surrounding lambda. The skull was sterilized a 0.7 mm drill bit was used to create a midline hole located 2 mm down from lambda. A Hamilton syringe with affixed 26 g needle was lowered to a depth of ˜3 mm then withdraw to 2.75 mm before injecting 2 uL (80,000) cells at 0.5 ul/min. The drill hole was closed with a thin slip of bone wax and the wound was closed. […] Corn oil was used as vehicle for both CX-4945 and DMSO. Weight, morbidity and survival were measured by a blinded collaborator. Kaplan-meyer survival curves were generated using GraphPad Prism and significance was measured by Logrank Mantel-Cox test.

Assay [2] has as its system Hh signaling in NIH 3T3 cells exposed to Shh. The experiment in a line: RT-qPCR of Hh target transcripts in Shh-stimulated NIH 3T3 cells. Format: cell-based, mouse. The conditions noted are these: SHH ligand-induced NIH 3T3 cells; as early as 4 h post exposure. How it is done: (§1) NIH3T3s or SUFU−/− MEFs were plated in 6 well plates at 400,000 cells/well in 10% FBS media constituted of DMEM (Invitrogen11960-069) supplemented with 10% FBS (Hyclone Labs SH30070.02), pen/strep (Life Technologies 15140-122), sodium pyruvate (Invitrogen 11360-070) and glutamax (Invitrogen 35050-061). Cells were then starved in 0.5% FBS for 24 h prior to treatment with 25% ShhN conditioned media in 0.5% FBS+/− drug treatment. GliΔN were treated 48 h post transfection. Unless otherwise stated, all treatments were performed for 6 h. Cell lysis and RNA extraction was performed using Qiashredder homogenizers (Qiagen 79654) and RNEasy mini kits (qiagen 74104) as per manufacturer's instructions. RNA was quantified on a nanodrop spectrophotometer (nanoddrop technologies ND-2000C). Transcript quantification was performed using a TaqMan RNA-to-Ct 1-Step Kit (Life technologies, 4392656) and the Applied Biosystems 7500 RT-PCR system as per the manufacturer's instructions. All primers were commercially available TaqMan® Gene Expression Assay probes purchased from Life Technologies (csnk2a1: Mm00786779_s1, csnk2a2: Mm01243455_m1, csnk2b: Mm00487216_m1, Gli1: Mm00494654_m1, Gli2: Mm.273292, Ccnd1: Mm.273049, Ptch: Mm00436047_m1).

In assay [3] the test system is Medulloblastoma cell lines (MB53, MB55 and MB21 cells). As to the kind of experiment: Acquired resistance in medulloblastoma cell lines. The following applies: CX-4945 10 uM. Type of assay: cell-based, mouse. How it is done:
Medulloblastoma cell lines (MB53, MB55 and MB21 cells) were cultured in Neurobasal (Life Technologies 10888-022)+B27 supplement (Invitrogen 17504044)+DMSO (0.1%), CX-4945 (10 uM) or TBB (50 uM). […] Primer sequences are provided in supplemental table 5.

For assay [4], the system named is MB cell lines (MB55, MB21, MB53). The experiment in a line: Cell viability of MB cell lines (CellTiter-Glo). Format: cell-based, mouse. The conditions noted are these: multiple MB cell lines derived from Ptch1+/− and Ptch1+/−; Trp53−/− mice. How it is done: Ptch+/−MB cell lines MB55 and MB21 were kindly gifted from Dr. Rosalind Segal (Dana Farber Cancer Institute, Harvard Medical School) and Ptch^+/−; p53^−/− MB53 cells were kindly gifted from Charles Rudin (Memorial Sloan-Kettering Cancer Center). All cell lines were validated for high Gli activity. Cell viability was assessed using CellTiter-Glo (G7573, Promega, WI, USA) according to the manufacturers instructions. Cells were plated at 10000 cells/well in 96-well plates, treated with drugs as indicated and data was collected on a TECAN Infinite 200 plate reader.
On the technique in general: ATP-based viability assays read luminescence as a measure of living cells.

For assay [5], the system named is Ptch+/−; Tpr53−/−; SmoD477G MB flank allografts. The experiment in a line: Flank allograft study, SMO inhibitor-resistant MB. Format: in vivo, mouse. The following applies: TBB 30 mg/kg IP BID or GDC-0449 37.5 mg/kg IP BID vs vehicle control. How it is done:
In vivo efficacy studies were performed in accordance with protocols approved by the Institutional Animal Care and Use Committee at Stanford University. SmoWT-MB and Smo[…]-MB cells isolated from either parental SmoWT or Smo[…] mouse Ptch^+/-; p53^-/- MB hind-flank allografts were kindly provided by Charles Rudin (Memorial Sloan-Kettering Cancer Center). Ptch+/-; Tpr53-/-, or, Ptch+/-; Tpr53-/-; Smo[…] MB cells were mixed 1:1 with matrigel and 10^7 cells were injected into both flanks of a Nu/Nu mouse. Once tumors reached 225-275 mm^3, mice were randomized to treatment vs. control groups. Treatment groups received 30 mg/kg IP BID of TBB (reconstituted in DMSO at 50 ug/uL), or 37.5 mg/kg IP BID of GDC-0449 (reconstituted in DMSO at 62.5 ug/uL). Control mice were treated with an equivalent volume of DMSO. Corn oil was used in all groups to a total volume of 180 uL/injection and all doses were given with a 28 g insulin syringe. Tumors were measured and mice were weighed daily. Once tumors reached 1.5 cm^2 or met institutional euthanasia criteria, mice were sacrificed and tumors were harvested. Growth curves were generated using GraphPad Prism and significance was measured by two-way ANOVA.

Assay [6] deals with Hh signaling in Sufu−/− mouse embryonic fibroblasts. The experiment in a line: RT-qPCR of Gli1 in Sufu−/− MEFs (epistasis study). Type of assay: cell-based. From the text:
(§2) Epistasis studies were next performed to determine where in the hedgehog pathway CK2 acts. The effect of TBB was examined: (i) in NIH 3T3s stimulated with SAG, a SMO agonist, (ii) in Sufu−/− mouse embryonic fibroblasts (MEF), and (iii) in NIH 3T3 cells overexpressing GLI2 (FIG. 3d-3f).
Sufu^−/− MEFs (conditional deletion of exons 4-8) were kindly provided by Pao-Tien Chang (UCSF). SAG (S7779), GDC-0449 (Vismodegib, S1082) and CX-4945 (Silmitasertib, S2248) was purchased from SelleckChem.com. TBB was purchased from EMD (218697). Shh-N conditional medium was made using a HEK 293 cell line that stably secretes ShhN as previously described. Myc-GL12-DN (17649, pCS2-MT-GLI2-deltaN) plasmid was purchased from Addgene (Cambridge, Mass., USA). […]
NIH3T3s or SUFU−/− MEFs were plated in 6 well plates at 400,000 cells/well in 10% FBS media constituted of DMEM (Invitrogen11960-069) supplemented with 10% FBS (Hyclone Labs SH30070.02), pen/strep (Life Technologies 15140-122), sodium pyruvate (Invitrogen 11360-070) and glutamax (Invitrogen 35050-061). […] RNA was quantified on a nanodrop spectrophotometer (nanoddrop technologies ND-2000C). Transcript quantification was performed using a TaqMan RNA-to-Ct 1-Step Kit (Life technologies, 4392656) and the Applied Biosystems 7500 RT-PCR system as per the manufacturer's instructions. […]

Assay [7] has as its system Hh signaling in NIH 3T3s stimulated with SAG. As to the kind of experiment: RT-qPCR of Gli1 in NIH 3T3s stimulated with SAG (epistasis study). Format: cell-based, mouse. The conditions noted are these: NIH 3T3s, SAG treated groups. The procedure:
as §2
as §1, with “All primers were commercially available TaqMan® Gene Expression Assay probes purchased from Life Technologies (csnk2a1: Mm00786779_s1, csnk2a2: Mm01243455_m1, csnk2b: Mm00487216_m1, Gli1: Mm00494654_m1, Gli2: Mm.273292, Ccnd1: Mm.273049, Ptch: Mm00436047_m1).” left out
(In general: Quantitative PCR measures a nucleic acid by following its amplification.)

Take `O=C(O)c1ccc2c(c1)nc(Nc1cccc(Cl)c1)c1ccncc12` [CX-4945, 5-(3-Chloroanilino)benzo[c][2,6]naphthyridine-8-carboxylic acid]: the “survival (Kaplan-Meier) of mice harboring intracranial allografts” value in assay [1] was “significant increase in survival”. In assay [2], the “Gli1 mRNA levels” value is reported as “inhibited; also recorded: loss of Gli1 induction”. For the same compound, in assay [3], the “surviving cells after 2 weeks of culture with drug” value is “only control treated (DMSO) and MB55 TBB treated (50 uM) cells remained”. In assay [4], the cell viability entry is “decreased; also recorded: dose dependent tumoricidal effects”.

`CS(=O)(=O)c1ccc(C(=O)Nc2ccc(Cl)c(-c3ccccn3)c2)c(Cl)c1` [GDC-0449, 2-chloro-N-(4-chloro-3-pyridin-2-ylphenyl)-4-methylsulfonylbenzamide]: the “Gli1 mRNA levels” value in assay [2] is given as “loss of Gli1 induction”. Besides, the “tumor growth of SmoD477G MB flank allografts” value in assay [5] is “resistant”. The “Gli1 mRNA / Gli transcript levels” value in assay [6] is “no significant change”.

With `CNC1CCC(N(Cc2cccc(-c3ccncc3)c2)C(=O)c2sc3ccccc3c2Cl)CC1` (centres unmarked) [SAG], in assay [7], the “Gli1 mRNA levels (effect of SMO agonist)” value is on record as “Increased”.
